Literature values as cited in patent US11969522B2, “Use of immune modulators to improve nerve regeneration” (The Board of Regents of the University of Texas System, priority 2019, dated 2024).

Tests used:
[1] = tested on: hematopoietic stem cells; conditions: animal and human studies
[2] = tested on: CXCR4; conditions: chronic exposure, rhesus macaques

SMILES	hematopoietic stem cell mobilization [1]	T lymphocyte CXCR4 expression on both CD4+ and CD8+ T lymphocytes [2]
c1cc(CN2CCCNCCNCCCNCC2)ccc1CN1CCCNCCNCCCNCC1 [Plerixafor]	very efficient inducer of hematopoietic stem cell mobilization	–
CCCCCc1cc(O)c2c(c1)OC(C)(C)[C@@H]1CCC(C)=C[C@@H]21 [THC]	–	increase
